Key:
[1] = molecular target: K-Ras G13D (Homo sapiens, UniProt P01116, G13D); experiment: biochemical
[2] = tested on: p-ERK in AGS cells (K-Ras G12D); experiment: Phospho-ERK1/2(THR202/TYR204) HTRF assay, AGS; type: cell-based; conditions: 2 hours incubation
[3] = tested on: AGS cells (K-Ras G12D); experiment: 2D cell growth inhibition assay, AGS; type: cell-based; conditions: 6 days, absolute IC50
[4] = tested on: AsPC-1 cells (K-Ras G12D); experiment: 2D cell growth inhibition assay, AsPC-1; type: cell-based; conditions: AsPC-1, K-Ras G12D, 6 days, absolute IC50
[5] = molecular target: T1, K-Ras G12V (Homo sapiens, UniProt P01116, G12V); experiment: biochemical
[6] = tested on: SW620 cells (K-Ras G12V); experiment: 2D cell growth inhibition assay, SW620; type: cell-based; conditions: 6 days, absolute IC50
[7] = molecular target: T2, K-Ras WT (Homo sapiens, UniProt P01116); experiment: SOS1 catalyzed nucleotide exchange assay (GDP form K-Ras), K-Ras WT; conditions: read-out: K-Ras WT GDP Biochemical Activity (IC50)
[8] = molecular target: T1, K-Ras G12V; experiment: SOS1 catalyzed nucleotide exchange assay (GDP form K-Ras), K-Ras G12V; conditions: read-out: K-Ras G12V GDP Biochemical Activity (IC50)
[9] = tested on: p-ERK in SW620 cells (K-Ras G12V); experiment: Phospho-ERK1/2(THR202/TYR204) HTRF assay, SW620; type: cell-based; conditions: 2 hours incubation
[10] = molecular target: T2, K-Ras WT; experiment: biochemical

T2 sequence (P01116 1-169 isoform P01116-2): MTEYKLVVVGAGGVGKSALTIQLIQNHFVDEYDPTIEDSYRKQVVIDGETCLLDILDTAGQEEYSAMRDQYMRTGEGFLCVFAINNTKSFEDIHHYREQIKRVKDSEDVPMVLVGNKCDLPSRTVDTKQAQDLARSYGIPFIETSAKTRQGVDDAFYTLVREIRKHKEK
Chain of K-Ras G13D (P01116 1-169 isoform P01116-2 G13D): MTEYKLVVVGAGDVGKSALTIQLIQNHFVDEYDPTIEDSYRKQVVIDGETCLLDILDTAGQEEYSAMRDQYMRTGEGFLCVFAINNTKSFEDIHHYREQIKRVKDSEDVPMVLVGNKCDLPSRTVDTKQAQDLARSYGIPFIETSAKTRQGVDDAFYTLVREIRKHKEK
T1 sequence (P01116 1-169 isoform P01116-2 G12V): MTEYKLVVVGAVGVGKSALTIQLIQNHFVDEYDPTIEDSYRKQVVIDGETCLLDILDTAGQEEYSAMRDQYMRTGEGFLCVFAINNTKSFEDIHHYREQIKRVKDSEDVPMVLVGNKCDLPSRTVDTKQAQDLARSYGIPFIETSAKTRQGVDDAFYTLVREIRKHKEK

SMILES	IC50 [1] [nM]	IC50 ([2]; Homo sapiens, 2 h) [nM]	IC50 ([3]; Homo sapiens, 144 h) [nM]	IC50 ([4]; Homo sapiens, ASPC1, 144 h) [nM]	IC50 [5] [nM]	IC50 ([6]; Homo sapiens, SW-620, 144 h) [nM]	IC50 [7] [nM]	IC50 [8] [nM]	IC50 ([9]; Homo sapiens, SW-620, 2 h) [nM]	IC50 [10] [nM]	IC50 [2] [nM]	IC50 [3] [nM]	IC50 [4] [nM]	IC50 [6] [nM]	IC50 [9] [nM]
C#Cc1c(F)ccc2cc(O)cc(-c3c(C(F)(F)F)cc4c(N5CCCOCC5)nc(OC[C@@]56CCCN5C[C@H](F)C6)nc4c3F)c12 [Compound 37, 5-ethynyl-6-fluoro-4-(8-fluoro-2-(((2R,7aS)-2-fluorotetrahydro-1H-pyrrolizin-7a(5H)-yl)methoxy)-4-(1,4-oxazepan-4-yl)-6-(trifluoromethyl)quinazolin-7-yl)naphthalen-2-ol]	> 100	49.2	278	629	147	330	9.93	6.71	92	228	–	–	–	–	–
C#Cc1c(F)ccc2cc(O)cc(-c3ncc4c(N5CCOC[C@@H](C)C5)nc(OC[C@@]56CCCN5C[C@H](F)C6)nc4c3F)c12 (single isomer, unassigned) [Compound 13A]	–	44.4	122	680	1210	93.6	5.99	4.08	42.3	794	–	–	–	–	–
C#Cc1c(F)ccc2cc(O)cc(-c3ncc4c(N5CCOC[C@@H](F)C5)nc(OC[C@@]56CCCN5C[C@H](F)C6)nc4c3F)c12 (single isomer, unassigned) [Compound 12A]	–	13	24.2	301	184	25.2	2.26	1.48	14	105	–	–	–	–	–
C#Cc1c(F)ccc2cc(O)cc(-c3ncc4c(N5CCCOCC5)nc(OCC56CCCN5CC(C)(F)C6)nc4c3F)c12 (stereo not drawn) [Compound 10, 5-ethynyl-6-fluoro-4-(8-fluoro-2-((2-fluoro-2-methyltetrahydro-1H-pyrrolizin-7a(5H)-yl)methoxy)-4-(1,4-oxazepan-4-yl)pyrido[4,3-d]pyrimidin-7-yl)naphthalen-2-ol]	–	6.71	26.2	228	40.6	10.5	2.05	1.28	10.6	62.1	–	–	–	–	–
C#Cc1c(F)ccc2cc(O)cc(-c3ncc4c(N5CCOCC(C#N)C5)nc(OC[C@@]56CCCN5C[C@H](F)C6)nc4c3F)c12 (stereo partly drawn) [Compound 88]	> 100	–	–	–	2850	–	28.5	13.6	–	–	–	–	–	–	–
C#Cc1c(F)ccc2cc(O)cc(-c3ncc4c(N5CCOC(C)CC5)nc(OC[C@@]56CCCN5C[C@H](F)C6)nc4c3F)c12 (stereo partly drawn) [Compound 17, 5-ethynyl-6-fluoro-4-(8-fluoro-2-(((2R,7aS)-2-fluorotetrahydro-1H-pyrrolizin-7a(5H)-yl)methoxy)-4-(7-methyl-1,4-oxazepan-4-yl)pyrido[4,3-d]pyrimidin-7-yl)naphthalen-2-ol trifluoroacetic acid]	61.2	–	–	–	796	–	–	26.8	–	–	–	–	–	–	–
C#Cc1c(F)ccc2cc(O)cc(-c3ncc4c(N5CCCO[C@@H](C)C5)nc(OC[C@@]56CCCN5C[C@H](F)C6)nc4c3F)c12 (single isomer, unassigned) [Compound 8A, trifluoroacetic acid]	–	21.7	98.1	608	170	133	4.7	2.49	37.6	255	–	–	–	–	–
C#Cc1c(F)ccc2cc(O)cc(-c3ncc4c(N5CC(C)COCC5C)nc(OC[C@@]56CCCN5C[C@H](F)C6)nc4c3F)c12 (stereo partly drawn) [Compound 27, 4-(4-(3,6-dimethyl-1,4-oxazepan-4-yl)-8-fluoro-2-(((2R,7aS)-2-fluorotetrahydro-1H-pyrrolizin-7a(5H)-yl)methoxy)pyrido[4,3-d]pyrimidin-7-yl)-5-ethynyl-6-fluoronaphthalen-2-ol]	–	65.1	216	904	720	90.7	9.51	8.13	144	235	–	–	–	–	–
C#Cc1c(F)ccc2cc(O)cc(-c3c(SC(F)(F)F)cc4c(N5CCCOCC5)nc(OC[C@@]56CCCN5C[C@H](F)C6)nc4c3F)c12 [Compound 41, 5-ethynyl-6-fluoro-4-(8-fluoro-2-(((2R,7aS)-2-fluorotetrahydro-1H-pyrrolizin-7a(5H)-yl)methoxy)-4-(1,4-oxazepan-4-yl)-6-((trifluoromethyl)thio)quinazolin-7-yl)naphthalen-2-ol trifluoroacetic acid]	–	–	62.2	238	32.4	88.8	14.9	6.88	–	82.4	–	–	–	–	–
C#Cc1c(F)ccc2cc(O)cc(-c3ncc4c(N5CCOC[C@H](C)C5)nc(OC[C@@]56CCCN5C[C@H](F)C6)nc4c3F)c12 (single isomer, unassigned) [Compound 13B]	–	1.1	6.35	43	35.7	5.48	0.76	0.658	5.82	14.2	–	–	–	–	–
C#Cc1c(F)ccc2cc(O)cc(-c3ncc4c(N5CCCO[C@H](C)C5)nc(OC[C@@]56CCCN5C[C@H](F)C6)nc4c3F)c12 (single isomer, unassigned) [Compound 8B, trifluoroacetic acid]	–	5.94	27.4	153	16.3	19.6	1.71	1.53	8.91	36.4	–	–	–	–	–
C#Cc1c(F)ccc2cc(O)cc(-c3ncc4c(N5CCCO[C@@H](CC#N)C5)nc(OC[C@@]56CCCN5C[C@H](F)C6)nc4c3F)c12 (single isomer, unassigned) [Compound 15B]	–	13.9	30.4	465	331	59.6	1.4	0.873	30.1	173	–	–	–	–	–

Next, values leading:

IC50 [1] [nM]	IC50 ([2]; Homo sapiens, 2 h) [nM]	IC50 ([3]; Homo sapiens, 144 h) [nM]	IC50 ([4]; Homo sapiens, ASPC1, 144 h) [nM]	IC50 [5] [nM]	IC50 ([6]; Homo sapiens, SW-620, 144 h) [nM]	IC50 [7] [nM]	IC50 [8] [nM]	IC50 ([9]; Homo sapiens, SW-620, 2 h) [nM]	IC50 [10] [nM]	IC50 [2] [nM]	IC50 [3] [nM]	IC50 [4] [nM]	IC50 [6] [nM]	IC50 [9] [nM]	SMILES
–	83.9	187	2870	343	630	7.95	3.12	321	394	–	–	–	–	–	C#Cc1c(F)ccc2cc(O)cc(-c3ncc4c(N5CCOC[C@H](O)C5)nc(OC[C@@]56CCCN5C[C@H](F)C6)nc4c3F)c12 (single isomer, unassigned) [Compound 46A]
–	10.4	20.6	150	62.6	28.6	2.66	1.37	30	70.4	–	–	–	–	–	C#Cc1c(F)ccc2cc(O)cc(-c3ncc4c(N5CCCOCC5)nc(OCC56CCCN5C[C@@](C)(F)C6)nc4c3F)c12 (single isomer, unassigned) [Compound 32A]
–	–	–	–	3720	–	11.4	3.43	–	2990	29.1	203	1100	60.6	19.4	C#Cc1c(F)ccc2cc(O)cc(-c3ncc4c(N5CC6COC(C6)C5)nc(OC[C@@]56CCCN5C[C@H](F)C6)nc4c3F)c12 (single isomer, unassigned) [Compound 84A, 4-(4-((1R,5S)-6-oxa-3-azabicyclo[3.2.1]octan-3-yl)-8-fluoro-2-(((2R,7aS)-2-fluorotetra-hydro-1H-pyrrolizin-7a(5H)-yl)methoxy)pyrido[4,3-d]pyrimidin-7-yl)-5-ethynyl-6-fluoronaphthalen-2-ol or 4-(4-((1S,5R)-6-oxa-3-azabicyclo[3.2.1]octan-3-yl)-8-fluoro-2-(((2R,7aS)-2-fluorotetra-hydro-1H-pyrrolizin-7a(5H)-yl)methoxy)pyrido[4,3-d]pyrimidin-7-yl)-5-ethynyl-6-fluoronaphthalen-2-ol]
–	15	20.6	446	50.9	50.1	0.964	1.26	45.7	31.7	–	–	–	–	–	C#Cc1c(F)ccc2cc(O)cc(-c3ncc4c(N5CCOC[C@@H](O)C5)nc(OC[C@@]56CCCN5C[C@H](F)C6)nc4c3F)c12 (single isomer, unassigned) [Compound 46B]
–	12.1	18.6	135	69.7	27.9	3.12	1.97	17.1	77.4	–	–	–	–	–	C#Cc1c(F)ccc2cc(O)cc(-c3ncc4c(N5CCCOCC5)nc(OCC56CCCN5C[C@](C)(F)C6)nc4c3F)c12 (single isomer, unassigned) [Compound 32B]
